Results from patent publication US7563461B2, “Zinc salt compositions for the prevention of dermal and mucosal irritation” (The Trustees of Columbia University in the City of New York, priority 2002, dated 2009).

Columns and labels:
vaginal mucosa = experiment: Nonoxynol-9-induced irritation of vaginal mucosa in a rabbit model; details: gel-based lubricant containing 9% nonoxynol-9, rabbits
From the text: This animal model was used to evaluate the anti-irritant efficacy of various zinc salt compositions in vivo.
Two ml of the zinc salt lubricant compositions indicated in Table 3 was instilled into the vagina of each rabbit daily for five consecutive days. At the end of this period, a veterinary pathologist evaluated each animal both macroscopically and microhistopathologically and scored the degree of vaginal irritation that was present. Irritation was quantified as follows: 0=No irritation, 1-4=Minimal Irritant, 5-8=Mild Irritation, 9-11=Moderate Irritation, 12-16=Severe Irritation.

[1] = cited from earlier work

Row | Substance | irritation of the vaginal mucosa (vaginal mucosa) | water solubility (in words) [1]
1 | nonoxynol-9 | mild to moderate irritation | –
2 | zinc picolinate | – | moderately water soluble
